According to PMC7062083, “Metabolite identification, tissue distribution, excretion and preclinical pharmacokinetic studies of ET-26-HCl, a new analogue of etomidate” (Royal Society Open Science, 2020):
Where two headings read alike, the source gives them in different places.

Experiments:
[1] = Dose tolerance pre-experiment in rats; format: in vivo
Protocol: For the PK study of beagle dogs and excretion test of rats, how do you identify those doses? As you described, beagle dogs in the 6 groups received three doses of ET-26- HCl: 1.045 mg/kg, 2.090 mg/kg, and 4.180 mg/kg as low (L), medium (M), and high (H) dose; however, the rats received a single 4.2 mg/kg dose of ET-26-HCl. Please provide the citations or calculation of […]
Thank the reviewer for this comment. According to the “Guidelines for non-clinical pharmacokinetic studies of drugs” of China Food and Drug Administration, the in vivo pharmacokinetic studies of animals should be performed with at least three dose groups, which the high dose is preferably close to the maximum tolerated dose, and the small dose is selected based on the limits of the effective dose of the animals. […]
kg and 1.045 mg/ kg for rat and dog, respectively, according to the results of the drug effect in the early stage of the cooperation laboratory. In our pre-experiment, individual rats appeared myoclonus after the 4-fold ED50 dose administration. When given the higher dose, some rats […]
Thus, the ED50, 2-fold ED50, and 4-fold ED50 dose were used as the low, middle and high dose group for the pharmacokinetic study in our previous research. Similar dosage design was used in our present work. The middle dose (4.2 mg/kg dose of ET-26-HCl) was utilized for the excretion test in rats. […]

[2] = Pharmacokinetics in beagle dogs after intravenous administration; format: in vivo; conditions: beagle dogs; for λ: i.v.; for Vd / half-life / AUC0-t / Cmax / clearance: both sexes, dog, plasma, iv; for Vd / half-life: beagle
Protocol: Concentrations of ET-26-HCl and ET-26-acid in biological samples were determined by liquid chromatography–tandem mass spectrometry (LC–MS/MS) after deproteinization with methanol. The bioanalytical method for simultaneous quantification of ET-26-HCl and ET-26-acid in the different matrix was fully validated according to FDA guidelines (electronic supplementary material, figure S1 and tables S1 and S2) in our previous study. Briefly, a 100 µl sample (plasma, tissue homogenate, bile, urine and faeces suspension) were spiked with 20 µl of IS solution and vortexed for 30 s. The mixture was then processed for protein precipitation with 300 µl methanol, followed by centrifugation at 12 000 r.p.m. for 5 min. Supernatant was collected and analysed by LC–MS/MS system.
The LC–MS/MS was performed as described previously. Briefly, ET-26-HCl, ET-26-acid and GBP were separated using a CAPCELL PAK C18 column (50 × 2.00 mm, 5.00 µm) as well as a Security Guard Cartridge (C18, 4 mm × 3.00 mm i.d., Phenomenex). The mobile phase consisting of 0.3% formic acid water (A), and methanol (B) was pumped at a flow rate of 0.6 ml min^−1. The gradient elution was achieved according to the following protocol: 0 min to about 0.50 min, A/B (41/9, v/v); 0.51 min to about 1.5 min, A/B (1/9, v/v); and 1.51 min to about 2.00 min, A/B ([…], v/v). Mass spectrometry was conducted on an API 3000 mass spectrometer (Sciex, Framingham, MA, USA) equipped with an electrospray ionization (ESI) source operating in positive mode. The MS/MS system was in the multiple reaction monitoring (MRM) mode, using the m/z transitions of 275.6/170.9 for ET-26-HCl, 217.7/113.1 for ET-26-acid and 172.5/154.3 for GBP (IS), respectively. The API 3000 mass parameters were set according to the following protocol: curtain gas, 6 psi; collision gas, 8 psi; nebulizer, 4 psi; ion spray voltage, 3000 V and ion source temperature, 450°C. The autosampler was conditioned at 4°C, and the injection volume was 5 µl. The linear ranges of this analytical method for ET-26-HCl and for ET-26-acid from all biological samples are shown in electronic supplementary material, table S3.
Beagle dogs, weighing 9–11 kg, were purchased from Sichuan Industrial of Antibiotics, China National Pharmaceutical Group Corporation (Chengdu, China). A 3 × 3 crossover experimental design with 24 beagles (equal number of male and female dogs) randomly divided into six groups was conducted. Beagle dogs in the six groups received three doses of ET-26-HCl: 1.045 mg kg^−1, 2.090 mg kg^−1 and 4.180 mg kg^−1 as low (L), medium (M) and high (H) dose. Blood samples (2 ml) were collected from the elbow vein in 4 ml heparinized tubes before dosing, and at 1, 3, 5, 10, 20, 30, 120 and 180 min post-dosing. All blood samples were centrifuged at 8000 r.p.m. for 10 min and plasma collected and stored at −80°C until analysis.
All calculations were performed on Microsoft Excel 2016 (Microsoft Co., USA). The Drug and Statistics 3.2.7 (DAS 3.2.7) software package (Mathematical Pharmacology Professional Committee of China, China) was used to acquire the main pharmacokinetic parameters of ET-26-HCl. All data were shown as mean ± standard deviation (s.d.). Statistical significances were calculated by one-way analysis of variance (ANOVA).

[3] = system: human plasma; assay: Plasma protein binding, equilibrium dialysis, human plasma; format: in vitro ADME; conditions: overall over the three concentrations
Protocol: (§1) The PPB of ET-26-HCl in mouse, rat, beagle dog, monkey and human plasma was determined according to the equilibrium dialysis method. In brief, 1 ml of control plasma samples in dialysis bag was incubated in 10 ml of PBS containing ET-26-HCl at a final concentration of 2.21 × 10^2, 1.77 × 10^3 and 3.54 × 10^3 […] at 4°C with an equilibrium time of 9 h to reach the mass balance binding condition. A 100 µl aliquots of the PBS buffer and the plasma in the dialysis bag were transferred to 2 ml EP tubes and diluted to 995 µl with PBS and analysed on the LC–MS/MS system. The PPB (fppb) was calculated as follows: fppb=Din−Dout/Din×100% , where Din is the plasma drug concentration in the dialysis bag and Dout is the dialysate drug concentration.

[4] = as above; format: in vitro ADME; conditions: human, plasma
Protocol: as §1

## COCCOC(=O)c1cncn1[C@H](C)c1ccccc1.Cl [ET-26-HCl, (R)-2-methoxyethyl1-(1-phenylethyl)-1H-imidazole-5-carboxylate hydrochloride]
[1]; individual rats, after the 4-fold ED50 dose
  adverse signs observed: myoclonus
[1]; some rats, dose higher than 4-fold ED50
  adverse signs observed: convulsions and even died
[2]; 1.045 mg kg^−1
  λ: 0.78 ± 0.06 1 h^−1
  AUC0-t: 30100 ng·h/mL
  Cmax: 1480 ± 140 ng/mL
  clearance: 32 mL/min/kg
[2]; 2.09 mg kg^−1
  λ: 0.54 ± 0.06 1 h^−1
  AUC0-t: 62700 ng·h/mL
  Cmax: 2850 ± 220 ng/mL
  clearance: 30 mL/min/kg
[2]; 4.18 mg kg^−1
  λ: 0.36 ± 0.06 1 h^−1
  AUC0-t: 130000 ng·h/mL
  Cmax: 6230 ± 240 ng/mL
  clearance: 25 mL/min/kg
[2]; 1.045 mg/kg, 1.045 mg kg^−1
  Vd: 2.54 ± 0.29 L/kg
  half-life: 0.92 ± 0.08 h
[2]; 2.09 mg/kg, 2.09 mg kg^−1
  Vd: ~4 L/kg
  half-life: ~1 h
[2]; 4.18 mg/kg, 4.18 mg kg^−1
  Vd: 4.63 ± 0.67 L/kg
  half-life: 2.17 ± 0.5 h
[3]
  plasma protein binding rate: 68%
[4]; measured concentration 654 ng ml^−1
  fraction unbound at 9 h, 654 ng ml^−1: 0.372
[4]; measured concentration 2.62 × 10^3 ng ml^−1, read-out: protein binding (converted)
  fraction unbound at 9 h: 0.318
[4]; measured concentration 5.23 × 10^3 ng ml^−1, read-out: protein binding (converted)
  fraction unbound at 9 h: 0.261
[4]; overall over the three concentrations, read-out: plasma protein binding rate (converted)
  fraction unbound at 9 h: 0.317
